# Laboratory results reported in patent US4345938A, “Herbicidal 2-haloacetanilides” (Monsanto Company, priority 1980, dated 1982).
# Tested on: Echinochloa crus-galli
# Assay: Upland seeded rice greenhouse test, barnyardgrass
# Type: in vivo
# Settings: Upland seeded rice, greenhouse
# Description: In another comparative test in the greenhouse, the compound of Example 2 and Compound B were tested in Upland seeded rice. […] In contrast, Compound A, (a commercial rice herbicide), required 0.14 kg/ha (0.125 lb/A) to selectively control the same weed with rice safety also maintained at 1.12 kg/ha resulting in a selectivity factor of at least 8, i.e., less than one-half that of the compound of Example 2.
smiles,measurement,value
"CCCCOCN(C(=O)CCl)c1c(CC)cccc1CC [Compound A, 2',6'-diethyl-N-(n-butoxymethyl)-2-chloroacetanilide]",rate for selective control of Echinochloa crus-galli,0.14 kg/ha
same,"selectivity factor, Echinochloa crus-galli in Upland seeded rice",at least 8
